What was measured:
S. aureus = experiment: Disruption biofilm assay, bacterial; assay type: cell-based, Staphylococcus aureus; details: Staphylococcus aureus, 24 h; disruption assay; S. aureus; 1% amino acid (unless specifically noted); p≤0.001; read-out: Reduce B Biofilm
Description: Two types of biofilm assays were performed: a sustained inhibition assay and a disruption assay. The sustained inhibition assay assesses the compound's ability to prevent biofilm development throughout all stages of biofilm formation, while the disruption assay assesses the compound's ability to break up an existing mature biofilm. These assays are described in detail in the following article: Lohse, M. B., Gulati, M., Valle Arevalo, A., Fishburn, A., Johnson, A. D., and Nobile, C. […] Antimicrobial Agents and Chemotherapy 61: e02749-16.
(§1) All bacterial biofilm solutions were prepared in Trypic Soy Broth (TSB), supplemented with 1% glucose (henceforth referred to as TSB-G). All subsequent procedures were performed in a manner that maintained sterility. A solution of each amino acid to be tested was prepared in weight to volume concentrations ranging from 0.1-5.0%. Amino acids were also tested in combinations. Compound solutions were homogenized with gentle agitation in the dark (4° C., 24 hours) before use.
Bacterial strains were streaked on Blood Agar plates (5% sheep blood in Tryptic Soy Agar) and incubated at 37° C. for 24 hours. A single colony from each strain to be tested was inoculated in a TSB broth and grown for 12 hours, at 37° C. with shaking (225 rpm). For the bacterial biofilm inhibition assays, 1 μL of saturated overnight cell culture was added to either 80 μL of TSB-G, or TSB-G supplemented with the amino acid compound solution to be tested, in a 384-well plate. The cells were allowed to adhere to the plate for 60 minutes at 37° C. without shaking. The media was carefully aspirated and 80 μL of TSB-G, or TSB-G supplemented with the amino acid compound solution was added to the plate. The plate was further incubated for 24 hours at 37° C. without shaking. Media was carefully aspirated and the biofilm was measured by optical density at 600 nm. Eight or twelve replicates were performed for each tested condition and the reported values are normalized to the control (TSB-G media only). For the bacterial biofilm disruption assays, 80 μL of TSB-G was added to the plate, along with 1 μL of overnight cell culture. The cells were allowed to adhere to the plate for 60 minutes at 37° C. with no shaking. The media was carefully aspirated and 80 μL of TSB-G was added to the plate. The plate was further incubated for 24 hours at 37° C. with no shaking. Media was carefully aspirated from the mature biofilm and 80 μL of TSB-G, or TSB-G supplemented with the amino acid to be tested, was gently added to the plate. The plate was further incubated for 24 hours at 37° C. without shaking. Media was aspirated and the biofilm was measured by optical density at 600 nm. Twelve replicates were performed for each tested condition and the reported values are normalized to the control (TSB-G media only).

[1] = test system: fungal and bacterial biofilms; experiment: Biofilm assays (sustained inhibition and disruption), fungal and bacterial biofilms; assay type: cell-based; details: single component on its own
Description: Two types of biofilm assays were performed: a sustained inhibition assay and a disruption assay. The sustained inhibition assay assesses the compound's ability to prevent biofilm development throughout all stages of biofilm formation, while the disruption assay assesses the compound's ability to break up an existing mature biofilm. These assays are described in detail in the following article: Lohse, M. B., Gulati, M., Valle Arevalo, A., Fishburn, A., Johnson, A. D., and Nobile, C. J. (2017) Assessment and optimizations of Candida albicans in vitro biofilm assays. Antimicrobial Agents and Chemotherapy 61: e02749-16.
as §1, with “For fungal biofilm assays, all solutions were prepared in RPMI 1640 medium. All bacterial” for “All bacterial”
All biofilm assays were performed using 384-well non-tissue culture treated polystyrene plates. The fungal species tested are as follows: Candida albicans, Candida guilhermondii, Candida parapsilosis, Candida glabrata, Candida tropicalis, Candida dubliniensis, and Candida auris. The bacterial species tested are as follows: Staphylococcus aureus (standard wild type and methicillin-resistant strain USA300), Escherichia coli, Pseudomonas aeruginosa and Staphylococcus epidermidis.
Fungal strains were streaked on Yeast Peptone Dextrose (YPD) agar plates and incubated at 30° C. for 48 hours. A single colony from each strain to be tested was inoculated into YPD broth and grown for 12 hours, at 30° C., shaking at 225 rpm. For the fungal biofilm inhibition assay, 1 μl of saturated overnight cell culture was added to either 80 μL of RPMI-1640 or RPMI-1640 supplemented with the amino acid compound solution to be tested, in a 384-well plate. The cells were allowed to adhere to the plate for 90 minutes at 37° C. with shaking (350 rpm). Loosely bound cells were washed once with phosphate buffered saline (PBS) and 80 ul of RPMI-1640, or RPMI-1640 supplemented with the amino acid compound solution was added to the plate. The plate was further incubated for 24 hours at 37° C. with shaking (350 rpm). Media was carefully aspirated and the biofilm was measured by optical density at 600 nm. Twelve replicates were performed for each tested condition and the reported values are normalized to the control (RPMI-1640 media only). For the fungal biofilm disruption assays, 80 μL of RPMI-1640 was added to the plate, along with 1 μL of overnight cell culture. The cells were allowed to adhere to the plate for 90 minutes at 37° C. with shaking (350 rpm). Loosely bound cells were washed once with PBS and 80 μL of RPMI-1640 was added to the plate. The plate was further incubated for 24 hours at 37° C. with shaking (350 rpm). Media was carefully aspirated from the mature biofilm and 80 μL of RPMI-1640, or RPMI-1640 supplemented with the amino acid compound solution to be tested, was gently added to the plate. The plate was further incubated for 24 hours at 37° C. with shaking (350 rpm). Media was carefully aspirated and the biofilm was measured by optical density at 600 nm. Twelve replicates were performed for each tested condition and the reported values are normalized to the control (RPMI-1640 media only).
Bacterial strains were streaked on Blood Agar plates (5% sheep blood in Tryptic Soy Agar) and incubated at 37° C. for 24 hours. A single colony from each strain to be tested was inoculated in a TSB broth and grown for 12 hours, at 37° C. with shaking (225 rpm).

## N[C@@H](CC(=O)O)C(=O)O [Aspartic Acid, L-aspartic acid]
S. aureus
  inhibition at 1 %: > 30%
[1]
  Effect on biofilms: very active against biofilms
